pIC50: −log10 of the molar value. A value given as a limit tells only on which side of the number the result lay.

The text below walks through data of ChEMBL document CHEMBL4483862, “Open-source discovery of chemical leads for next-generation chemoprotective antimalarials” (2018).

The subject of this experiment is Plasmodium berghei. As to the kind of experiment: Luciferase/luciferin-expressing antifolate-resistant parasites were used to infect a culture of HepG2 cells that were pre-incubated with compounds. Infected hepatocytes emit light due to the luciferase reaction. Assay results are presented as the percent inhibition of light emission compared to control. […]. The experiment is classed as functional. Conditions: sporozoite; for IC90: read-out: LUCIFERASE INFECTION ASSAY - IC90.

The mark [1] stands for this setting: read-out: LUCIFERASE INFECTION ASSAY - IC50.

As usually defined, the pIC50 is the negative decadic logarithm of the IC50, by convention in mol/L. Broadly, the IC90 is the point of the concentration-response curve where the effect stands at 90%. `COc1ccc(CN2C(=O)c3ccccc3C(C=NNC(=O)Cc3cccn3C)C2=O)cc1` (configuration not stated): the IC90 worked out at 4.28 µM. Also, where the note is “FFLUC_HILL_SLOPE 212, FFLUC_R_SQUARED 0.138, HEPG2TOX_HILL_SLOPE 1.34, HEPG2TOX_R_SQUARED 0.84, PBLUC_HILL_SLOPE 13.5, PBLUC_R_SQUARED 0.236, read-out: LUCIFERASE INFECTION ASSAY - IC50”, the pIC50 is 5.44.
Take `COc1ccc(OC)c(C(C)Nc2ncnc3sccc23)c1` (configuration not stated): the IC90 is above 10 µM. The pIC50 under setting [1] was 5.37.
With `N#CC(C#N)=NNc1ccc(F)cc1F`, the IC90 was above 16 µM. Besides, the pIC50 (HEPG2TOX_HILL_SLOPE 0.862, HEPG2TOX_R_SQUARED 0.0964, read-out: LUCIFERASE INFECTION ASSAY - IC50) is below 4.80.
`Nc1c(C(=O)c2ccc(Cl)cc2)sc(NCc2ccco2)c1C(=O)Nc1cc(Cl)ccc1Cl`: the IC90 was determined as 4.4 µM. Besides, the pIC50 (FFLUC_HILL_SLOPE 2.13, FFLUC_R_SQUARED 0.528, HEPG2TOX_HILL_SLOPE 16.1, HEPG2TOX_R_SQUARED 0.784, PBLUC_HILL_SLOPE 2.08, PBLUC_R_SQUARED 0.686, read-out: LUCIFERASE INFECTION ASSAY - IC50) was 5.82.
Regarding `Cc1ccc(C)c(-c2nn(CC(=O)c3cc(C)n(C)c3C)c(=O)c3ccccc23)c1`, the IC90 was above 10 µM. Moreover, the pIC50 under setting [1] is below 5.00.
With `CCc1c(C)sc2[nH]c(-c3ccc(C(=O)N4CCN(S(=O)(=O)c5c(Cl)cccc5Cl)CC4)cc3)nc(=O)c12`, the IC90 was 4.36 µM. For the same molecule, the pIC50 (PBLUC_HILL_SLOPE 2.05, PBLUC_R_SQUARED 0.76, read-out: LUCIFERASE INFECTION ASSAY - IC50) is 5.83.
In the case of `Cc1cc(C)cc(C(=O)N(C)CC(=O)N2CCCC2)c1`, the IC90 was above 10 µM. The pIC50 (FFLUC_HILL_SLOPE 0.201, FFLUC_R_SQUARED 0.0577, read-out: LUCIFERASE INFECTION ASSAY - IC50) is below 5.00.
Turning to `CCNC(=O)N1CCc2nc(Nc3cc(Cl)cc(Cl)c3)ncc2C1`, the IC90 was above 9.01 µM. The pIC50 under setting [1] was below 5.05.
As for `CCOC(=O)c1c(-c2ccccc2)oc2ccc(N(C(C)=O)S(=O)(=O)c3ccc4ccccc4c3)cc12`, the concentration for an effect of 90% (IC90) was above 10 µM. The pIC50 under setting [1] is 5.20.
As for `CCc1ccc(CN2CCc3c(c(C(=O)N4CCCC(O)C4)nn3Cc3cccc(OC)c3)C2)cc1` (configuration not stated), the IC90 was above 6.75 µM. In addition, the pIC50 (PBLUC_HILL_SLOPE 17.4, PBLUC_R_SQUARED 0.568, read-out: LUCIFERASE INFECTION ASSAY - IC50) was 5.19.
For the molecule `CCN(CCO)c1ccc(NC2=C(NC(C)=O)C(=O)c3ccccc3C2=O)cc1`, the 90% effect concentration (IC90) was above 10 µM. The pIC50 (FFLUC_HILL_SLOPE 10.4, FFLUC_R_SQUARED 0.141, HEPG2TOX_HILL_SLOPE 0.681, HEPG2TOX_R_SQUARED 0.905, PBLUC_HILL_SLOPE 1.27, PBLUC_R_SQUARED 0.687, read-out: LUCIFERASE INFECTION ASSAY - IC50) was 5.67.
As for `COc1ccc(Nc2nccc3[nH]c(-c4ccsc4)cc23)cn1`, the 90% effect concentration (IC90) is above 10 µM. Also, the pIC50 under setting [1] is below 5.00.
For the molecule `Cc1ccc(/C=C(\C#N)c2nc(=O)c3c4c(sc3[nH]2)CC(C)CC4)o1` (configuration not stated), the IC90 was above 10 µM. Moreover, under setting [1], the pIC50 was below 5.00.
Regarding `CCN(CC)c1ccc(NC(=S)NC(=O)c2ccco2)cc1S(=O)(=O)Nc1ccc(OC)cc1`, the IC90 was above 10 µM. Moreover, the negative logarithm of the IC50 (pIC50) under setting [1] is below 5.00.
For the molecule `CN(C)CCNc1nc2sc3c(c2c(=O)n1-c1ccccc1)CCCCC3`, the IC90 was above 8.63 µM. Also, under “PBLUC_HILL_SLOPE 1.45, PBLUC_R_SQUARED 0.611, read-out: LUCIFERASE INFECTION ASSAY - IC50”, the pIC50 was 5.08.
For `Clc1cc2c(c3ncccc13)OCN(Cc1ccco1)C2`, the IC90 came to 1.44 µM. Also, the negative-log IC50 (pIC50) (FFLUC_HILL_SLOPE 3.15, FFLUC_R_SQUARED 0.751, HEPG2TOX_HILL_SLOPE 1.67, HEPG2TOX_R_SQUARED 0.873, PBLUC_HILL_SLOPE 9.79, PBLUC_R_SQUARED 0.762, read-out: LUCIFERASE INFECTION ASSAY - IC50) was 5.94.
Consider `Cc1ccc(-n2c(C)cc(C(=O)COC(=O)c3cccnc3O)c2C)cc1C`, for which the IC90 was determined as 6.62 µM. Besides, the pIC50 (PBLUC_HILL_SLOPE 1.34, PBLUC_R_SQUARED 0.562, read-out: LUCIFERASE INFECTION ASSAY - IC50) was 5.89.
Take `Cc1nn(-c2ccccc2)nc1C(=O)Nc1nc(CN2CCCCCC2)cs1`: the IC90 was above 10 µM. Under setting [1], the pIC50 was below 5.00.
On to `O=C(c1c[nH]c(-c2ccnc(N3CCCC3)c2)c1)c1cc(Cl)ccc1O`, for which the IC90 came out at 1.6 µM. In addition, the negative logarithm of the IC50 (pIC50) (HEPG2TOX_HILL_SLOPE 4.74, 0.999, HEPG2TOX_R_SQUARED 0.925, 0.982, PBLUC_HILL_SLOPE 1.70, 2.23, PBLUC_R_SQUARED 0.381, 0.812, read-out: LUCIFERASE INFECTION ASSAY - IC50) is 6.22.
In the case of `CC(C)c1ccc2c(c1)/C(=N/Nc1ccc(S(=O)(=O)Nc3ccc(Cl)cc3)cc1[N+](=O)[O-])C(=O)N2`, the 90% effect concentration (IC90) is above 10 µM. In addition, the pIC50 under setting [1] is below 5.00.
Consider `OC(COc1ccc(Cl)c(Cl)c1)CN1CCC(Nc2nccc(C(F)(F)F)n2)CC1` (configuration not stated), for which the concentration for an effect of 90% (IC90) is above 7.09 µM. Where the note is “PBLUC_HILL_SLOPE 16.2, PBLUC_R_SQUARED 0.0623, read-out: LUCIFERASE INFECTION ASSAY - IC50”, the negative-log IC50 (pIC50) was 5.16.
For `COc1ccc(NC(=O)NCC(=O)c2cc(C)n(-c3ccc(C)c(C)c3)c2C)cc1`, the IC90 amounted to 3.99 µM. Further, the pIC50 (HEPG2TOX_HILL_SLOPE 6.34, HEPG2TOX_R_SQUARED 0.826, PBLUC_HILL_SLOPE 22.8, PBLUC_R_SQUARED 0.569, read-out: LUCIFERASE INFECTION ASSAY - IC50) is 5.44.
`Cc1sc2ncnc(Oc3ccc4ccccc4c3)c2c1-c1ccccc1`: the IC90 is above 10 µM. Besides, the pIC50 (HEPG2TOX_HILL_SLOPE 0.313, HEPG2TOX_R_SQUARED 0.61, PBLUC_HILL_SLOPE 2.74, PBLUC_R_SQUARED 0.421, read-out: LUCIFERASE INFECTION ASSAY - IC50) is 5.17.
Consider `Cc1ccc(Oc2ccc(NC(=O)CCc3cccnc3)cc2)cc1`, for which the 90% effect concentration (IC90) worked out at 9.55 µM. Besides, for the setting “PBLUC_HILL_SLOPE 16.6, PBLUC_R_SQUARED 0.382, read-out: LUCIFERASE INFECTION ASSAY - IC50”, the negative logarithm of the IC50 (pIC50) was 5.08.
For the molecule `Cc1ccc(Cn2nc(C)cc2C(=O)Sc2ccc(Cl)cc2)cc1`, the 90% effect concentration (IC90) was above 9.25 µM. Besides, the pIC50 (FFLUC_HILL_SLOPE 19.8, FFLUC_R_SQUARED 0.763, PBLUC_HILL_SLOPE 2.54, PBLUC_R_SQUARED 0.663, read-out: LUCIFERASE INFECTION ASSAY - IC50) is 5.24.
For the molecule `COc1ccc(-n2nnnc2SCC(=O)Nc2cc(-c3ccc(C)cc3)nn2-c2ccccc2)cc1`, the IC90 is above 10 µM. Further, under setting [1], the pIC50 is below 5.00.
